A short description of series [1]: Solubilities of active ingredients in carvacrol or carvacrol-containing (or thymol) formulations. The format is physicochemical. An excerpt: The mixing ratios are always given as volume proportions. Liqui-Patch® are formulations of ready-to-use mixtures of polymers and other additives for making transdermal systems and are obtainable from the company epinamics GmbH. In the formulation employed here, Liqui-Patch® contains the following components: mixture of 10 g triethyl citrate, 100 g water (demineralized or medical), 100 g DynamX®, 790 g ethanol.

Series [2] can be described thus: Solubilities of clotrimazole and testosterone in different solvents. Conditions: for Solubilities in solvents with compounds employed according to the invention, compared with other solvents: Table II; for solubility: organic solvent or mixture.
Series [3] in a line: Volatility of carvacrol with different admixtures (spots on glass plate at 35° C., recovery). The format is physicochemical. Particulars: for V.C. 30 min. (volatile carvacrol) / V.C. 3 h (volatile carvacrol): carvacrol 20%, remainder ethanol, 35° C. As to the method: For testing whether carvacrol is suitable for transdermal systems or whether carvacrol is contained sufficiently long in transdermal systems, the volatility was investigated with different admixtures. The volatility is important, in order to keep the active ingredients sufficiently long in solution in the film.
For the measurement, two spots of 5 μl of each formulation, containing 1 mg carvacrol, were applied per point of time on a glass plate kept at 35° C. Two spots of a respective point of time (30 min. and 3 h after application of the spot) were wiped off with a cotton applicator. The amount of wiped-off carvacrol was determined. The difference to 100% intended recovery rate is the volatile carvacrol. The abbreviation V. refers to “volatile”, the abbreviation C. refers to carvacrol. The share of carvacrol is always 20%, the remainder relative to the sum of carvacrol and the additive is ethanol. Amounts are given in vol.-%.

Where [4] appears, read: solvent: Carvacrol/Liqui-Patch (1:1), volume proportions.
[5] abbreviates: additive Ethylmethyl ketone 10%.
Where [6] appears, read: additive Ethylmethyl ketone 20%.
Where [7] appears, read: additive Isopropyl myristate 10%.
Setting [8] is: additive Isopropyl myristate 20%.
[9] abbreviates: additive Propylene carbonate 10%.
Where [10] appears, read: additive Propylene carbonate 20%.
The mark [11] stands for this setting: additive Propylene glycol 10%/menthol 5%.
Setting [12] is: additive Propylene glycol 20%/menthol 10%.

These results are taken from US20160317661A1, “DERMAL AND/OR TRANSDERMAL PHARMACEUTICAL COMPOSITION CONTAINING A TERPENOID COMPOUND” (EPINAMICS GMBH, priority 2013, published 2016).

The term solubility denotes how much of the substance goes into solution per volume.

Converted amounts (≈) assume the structure as drawn. Structures can show the parent of a compound that is named as a salt.

Regarding `O=c1[nH]cc(F)c(=O)[nH]1` [5-Fluorouracil], the Dissolved amount in series [1] (solvent: Carvacrol) was 25 mg/mL.

For the compound `Nc1cc(=O)[nH]c(=O)[nH]1` [6-Aminouracil], the Dissolved amount in series [1] (solvent: Carvacrol) is under 50 mg/mL.

In series [1] (solvent: Carvacrol), `Oc1cccc2cccnc12` [8-Hydroxyquinoline] had a Dissolved amount of over 100 mg/mL.

With `C=C(c1ccc(C(=O)O)cc1)c1cc2c(cc1C)C(C)(C)CCC2(C)C` [Bexarotene], the Dissolved amount was 60 mg/mL in series [1] (solvent: Carvacrol) and 30 mg/mL in series [1] (setting [4]).

In the case of `Clc1ccccc1C(c1ccccc1)(c1ccccc1)n1ccnc1` [Clotrimazole], the “Solubilities in solvents with compounds employed according to the invention, compared with other solvents” value in series [2] was “considerably higher”. Also, the Dissolved amount in series [1] (solvent: Carvacrol) came out at 410 mg/mL.

For the compound `O=c1ccc2ccccc2o1` [Coumarin], the Dissolved amount in series [1] (solvent: Carvacrol) is over 200 mg/mL.

On to `O=C(O)c1cc(=O)c2c(OCC(O)COc3cccc4oc(C(=O)O)cc(=O)c34)cccc2o1` [Cromoglicic acid-Na, Cromoglicic acid disodium salt], for which, in series [1] (solvent: Carvacrol), the Dissolved amount is 50 mg/mL.

In turn, `COc1cc(/C=C/C(=O)CC(=O)/C=C/c2ccc(O)c(OC)c2)ccc1O` [Curcumin] registered a Dissolved amount in series [1] (solvent: Carvacrol) of 20 mg/mL.

`O=c1oc2c(O)c(O)cc3c(=O)oc4c(O)c(O)cc1c4c23` [Ellagic acid] gave a Dissolved amount in series [1] (solvent: Carvacrol) of 60 mg/mL.

`CC[C@H]1OC(=O)[C@H](C)[C@@H](O[C@H]2C[C@@](C)(OC)[C@@H](O)[C@H](C)O2)[C@H](C)[C@@H](O[C@@H]2O[C@H](C)C[C@H](N(C)C)[C@H]2O)[C@](C)(O)C[C@@H](C)C(=O)[C@H](C)[C@@H](O)[C@]1(C)O` [Erythromycin] displayed a Dissolved amount in series [1] (solvent: Carvacrol) of 110 mg/mL.

The compound `Cl.Cl.Fc1ccc(C(c2ccc(F)cc2)N2CCN(C/C=C/c3ccccc3)CC2)cc1` [Flunarizine*2HCl] came in with a Dissolved amount in series [1] (solvent: Carvacrol) of 60 mg/mL.

Consider `CN1C2CCCC1CC(NC(=O)c1nn(C)c3ccccc13)C2` (stereo not drawn) [Granisetron], for which, in series [1] (solvent: Carvacrol 62.5% Methanol 31.25% 2M NaOH/H2O 6.25%), the Dissolved amount stood at 71.25 mg/mL.

`O=C(CCCN1CCC(O)(c2ccc(Cl)cc2)CC1)c1ccc(F)cc1` [Haloperidol]: in series [1] (solvent: Carvacrol), the Dissolved amount was found to be 100 mg/mL.

In series [1] (solvent: Carvacrol), `CC(=O)N1CCN(c2ccc(OCC3COC(Cn4ccnc4)(c4ccc(Cl)cc4Cl)O3)cc2)CC1` (stereo not drawn) [Ketoconazole] registered a Dissolved amount of 140 mg/mL.

As to `CCCCCCCCCCCC(=O)O` [Lauric acid], the Dissolved amount was 500 mg/mL in series [1] (solvent: Carvacrol) and 250 mg/mL in series [1] (setting [4]).

The compound `CCn1cc(C(=O)O)c(=O)c2ccc(C)nc21` [Nalidixic Acid] gave a Dissolved amount in series [1] (solvent: Carvacrol) of 108 mg/mL.

Compound `O=C(O)c1ccccc1O` [Salicylic acid] displayed a Dissolved amount in series [1] (solvent: Carvacrol/Methanol (1:1), volume proportions) of 240 mg/mL.

Regarding `CN(C/C=C/C#CC(C)(C)C)Cc1cccc2ccccc12` [Terbinafine], the Dissolved amount in series [1] (solvent: Thymol/Ethanol (1:1)) was determined as 406 mg/mL.

As to `C[C@]12CC[C@H]3[C@@H](CCC4=CC(=O)CC[C@@]43C)[C@@H]1CC[C@@H]2O` [Testosterone], in series [2], the “Solubilities in solvents with compounds employed according to the invention, compared with other solvents” value is on record as “considerably higher”. Moreover, the solubility is under 250 mg/mL in series [2] (solvent: 4-Methyl-Anisole); 335 mg/mL (≈ 1160 mM) in series [2] (solvent: 20% 4MS/80% EtOH); 200 mg/mL (≈ 693 mM) in series [2] (solvent: 20% (S)-(—)-Limonene/80% Ethanol); 500 mg/mL (≈ 1730 mM) in series [2] (solvent: 20% Anisole/80% EtOH); 170 mg/mL (≈ 589 mM) in series [2] (solvent: 20% Carvacrol/80% Acetone); 260 mg/mL (≈ 901 mM) in series [2] (solvent: 20% Carvacrol/80% EtOH). For the same compound, the solubility in series [2] (solvent: 20% Carvacrol/80% LP (Liqui-Patch)) came to 250 mg/mL (≈ 867 mM); in series [2] (solvent: 20% Gamma-Terpinene/80% ethalol) it was 200 mg/mL (≈ 693 mM); in series [2] (solvent: 20% Guaiacol/80% EtOH), 300 mg/mL (≈ 1040 mM); in series [2] (solvent: 20% Guaiacol/80% LP (Liqui-Patch)), 270 mg/mL (≈ 936 mM); in series [2] (solvent: 20% Thymol/80% Acetone), 180 mg/mL (≈ 624 mM); in series [2] (solvent: 20% Thymol/80% EtOH) it was 330 mg/mL (≈ 1140 mM). For the same compound, the solubility in series [2] (solvent: 20% Thymol/80% LP (Liqui-Patch)) is 300 mg/mL (≈ 1040 mM); in series [2] (solvent: 20% p-Cymene/80% Ethanol), 300 mg/mL (≈ 1040 mM); in series [2] (solvent: (S)-(—)-Limonene) it was under 100 mg/mL; in series [2] (solvent: Acetone), 60 mg/mL (≈ 208 mM); in series [2] (solvent: Anisole) it was under 100 mg/mL; in series [2] (solvent: Ethanol), 90 mg/mL (≈ 312 mM). The solubility was under 100 mg/mL in series [2] (solvent: Gamma-Terpinene); 270 mg/mL (≈ 936 mM) in series [2] (solvent: Guaiacol); 190 mg/mL (≈ 659 mM) in series [2] (solvent: LP (Liqui-Patch)); under 100 mg/mL in series [2] (solvent: Methyl salicylate (4MS)); 230 mg/mL (≈ 797 mM) in series [2] (solvent: carvacrol); under 100 mg/mL in series [2] (solvent: p-Cymene). This compound also gave a Dissolved amount in series [1] (solvent: Carvacrol) of 220 mg/mL.

`CC1=CC(=O)C(C(C)C)=CC1=O` [Thymoquinone] displayed a Dissolved amount in series [1] (solvent: Carvacrol) of over 100 mg/mL.

Regarding `O=c1[nH]c(=O)c2[nH]c(=O)[nH]c2[nH]1` [Uric acid], the Dissolved amount in series [1] (solvent: Carvacrol) is under 20 mg/mL.

As for `Cc1ccc(C(C)C)cc1O` [carvacrol], the “V.C. 30 min. (volatile carvacrol)” value is 33% in series [3] (setting [5]); 45% in series [3] (setting [6]); 28% in series [3] (additive Glycerol 10%); 33% in series [3] (additive Glycerol 20%); 26% in series [3] (setting [7]); 24% in series [3] (setting [8]). Also, the “V.C. 30 min. (volatile carvacrol)” value is recorded as 29% in series [3] (setting [9]); 11% in series [3] (setting [10]); 40% in series [3] (setting [11]); 40% in series [3] (additive Propylene glycol 10%); 0% in series [3] (setting [12]); 1% in series [3] (additive Propylene glycol 20%). The figures for the “V.C. 30 min. (volatile carvacrol)” value in series [3] (additive Water 10%) and in series [3] (additive Water 20%) were 18% and 0%, respectively. The “V.C. 3 h (volatile carvacrol)” value was 100% in series [3] (setting [5]); 100% in series [3] (setting [6]); 96% in series [3] (additive Glycerol 10%); 88% in series [3] (additive Glycerol 20%); 46% in series [3] (setting [7]); 32% in series [3] (setting [8]). Moreover, the “V.C. 3 h (volatile carvacrol)” value in series [3] (setting [9]) is 49%; in series [3] (setting [10]) it was 24%; in series [3] (setting [11]) it was 97%; in series [3] (additive Propylene glycol 10%) it was 51%; in series [3] (setting [12]), 46%; in series [3] (additive Propylene glycol 20%), 33%. Also, the “V.C. 3 h (volatile carvacrol)” value in series [3] (additive Water 10%) and in series [3] (additive Water 20%) was 94% each time. The Volatility of carvacrol entry in series [3] (by propylene carbonate, propylene glycol, or isopropyl myristate as additive) is “reduced”.
